# Results taken from ChEMBL document CHEMBL1201862, “PubChem BioAssay data set” (2004).
#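 48-hour exposure; five concentrations; linearly interpolated endpoints. GI50 = concentration required for 50% inhibition of growth.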 Activity calls are given as the source filed them. No stated cut-off is given here; in the data, active = GI50 up to about 1.1 µM and inactive = higher.
# Key:
# Assay in all cases: DTP human tumour cell line panel, 48 h
# RPMI-8226 = test system: RPMI-8226
# SK-MEL-2 = test system: SK-MEL-2
# NCI-H522 = test system: NCI-H522
# DU-145 = test system: DU-145
# CAKI-1 = test system: CAKI-1
# NCI-H23 = test system: NCI-H23
# SNB-75 = test system: SNB-75
# OVCAR-5 = test system: OVCAR-5
# OVCAR-8 = test system: OVCAR-8
# HOP-62 = test system: HOP-62
# U-251 = test system: U-251
# SF-268 = test system: SF-268
# SK-OV-3 = test system: SK-OV-3
# MDA-MB-435 = test system: MDA-MB-435
# LOX IMVI = test system: LOX IMVI
# T47D = test system: T47D
# M14 = test system: M14
# EKVX = test system: EKVX
# IGROV-1 = test system: IGROV-1
# A498 = test system: A498
Compound,GI50 (RPMI-8226),GI50 (SK-MEL-2),GI50 (NCI-H522),GI50 (DU-145),GI50 (CAKI-1),GI50 (NCI-H23),GI50 (SNB-75),GI50 (OVCAR-5),GI50 (OVCAR-8),GI50 (HOP-62),GI50 (U-251),GI50 (SF-268),GI50 (SK-OV-3),GI50 (MDA-MB-435),GI50 (LOX IMVI),GI50 (T47D),GI50 (M14),GI50 (EKVX),GI50 (IGROV-1),GI50 (A498)
OCc1cn(Cc2ccccc2)c2ccccc12,2.16 µM (inactive),2.56 µM (inactive),4.65 µM (inactive),> 21.6 µM (inactive),< 0.0461 µM (active),14.4 µM (inactive),1.51 µM (inactive),0.375 µM (active),13 µM (inactive),5.32 µM (inactive),1.02 µM (active),14 µM (inactive),11 µM (inactive),> 51.9 µM (inactive),19.5 µM (inactive),< 0.0411 µM (active),> 32.6 µM (inactive),> 73.1 µM (inactive),< 0.0356 µM (active),
CC(=C\c1ccccc1)/C=C(\C#N)C(N)=O,,> 10 µM (inactive),> 10 µM (inactive),> 10 µM (inactive),> 10 µM (inactive),,> 10 µM (inactive),> 10 µM (inactive),> 10 µM (inactive),> 10 µM (inactive),> 10 µM (inactive),> 10 µM (inactive),> 10 µM (inactive),> 10 µM (inactive),> 10 µM (inactive),> 10 µM (inactive),> 10 µM (inactive),> 10 µM (inactive),> 10 µM (inactive),> 10 µM (inactive)
Cn1nc(/C=C\C(=O)N2CC(CCl)c3c2cc(N)c2ccccc32)cc1/C=C/C(=O)N1CC(CCl)c2c1cc(N)c1ccccc21 (centres undefined),,< 0.01 µM (active),< 0.01 µM (active),< 0.01 µM (active),< 0.01 µM (active),< 0.01 µM (active),< 0.01 µM (active),< 0.01 µM (active),< 0.01 µM (active),< 0.01 µM (active),< 0.01 µM (active),< 0.01 µM (active),< 0.01 µM (active),< 0.01 µM (active),< 0.01 µM (active),< 0.01 µM (active),< 0.01 µM (active),0.0215 µM (active),,< 0.01 µM (active)
O=C(O)C1CC(C2CCCCN2)CN2CCCCC12 (centres undefined),> 100 µM (inactive),> 100 µM (inactive),,> 100 µM (inactive),> 100 µM (inactive),> 100 µM (inactive),> 100 µM (inactive),> 100 µM (inactive),> 100 µM (inactive),> 100 µM (inactive),> 100 µM (inactive),> 100 µM (inactive),> 100 µM (inactive),> 100 µM (inactive),> 100 µM (inactive),> 100 µM (inactive),> 100 µM (inactive),> 100 µM (inactive),> 100 µM (inactive),> 100 µM (inactive)
COc1ccc2oc(=N)c(C(=O)Nc3cccc4ccccc34)cc2c1,14.1 µM (inactive),18.8 µM (inactive),,24 µM (inactive),29.5 µM (inactive),29.4 µM (inactive),10.2 µM (inactive),41.3 µM (inactive),,11 µM (inactive),13 µM (inactive),25.9 µM (inactive),15.5 µM (inactive),0.319 µM (active),,23.6 µM (inactive),17.9 µM (inactive),38.1 µM (inactive),,13.2 µM (inactive)
O=C(CSc1n[nH]c(=O)[nH]c1=O)NNC(=O)c1cccc2nc3ccccc3nc12,> 100 µM (inactive),> 100 µM (inactive),,36.5 µM (inactive),> 100 µM (inactive),35.9 µM (inactive),,> 100 µM (inactive),> 100 µM (inactive),> 100 µM (inactive),> 100 µM (inactive),> 100 µM (inactive),> 100 µM (inactive),35.4 µM (inactive),46.1 µM (inactive),> 100 µM (inactive),68.1 µM (inactive),> 100 µM (inactive),> 100 µM (inactive),> 100 µM (inactive)
COc1cc(/C=C2\N=C(c3ccccc3)N(c3cc4cc(Sc5ccccc5)ccc4[nH]3)C2=O)ccc1O,,,1.86 µM (inactive),11.7 µM (inactive),11.1 µM (inactive),18.5 µM (inactive),21.8 µM (inactive),> 50 µM (inactive),12.3 µM (inactive),,,,,1.46 µM (inactive),29.9 µM (inactive),5.52 µM (inactive),3.65 µM (inactive),22.1 µM (inactive),3.28 µM (inactive),0.102 µM (active)
O=C1CS(=O)(=O)C(c2cccc(Oc3ccccc3)c2)N1c1ccc(Cl)cc1 (centres undefined),,15.2 µM (inactive),16.8 µM (inactive),67.3 µM (inactive),15.6 µM (inactive),21.1 µM (inactive),28 µM (inactive),25.1 µM (inactive),18.8 µM (inactive),46.7 µM (inactive),19.1 µM (inactive),25.1 µM (inactive),49 µM (inactive),17.1 µM (inactive),14.4 µM (inactive),10.9 µM (inactive),18.5 µM (inactive),11.5 µM (inactive),14.3 µM (inactive),
CC(C)(C)n1c(=O)[nH]n(C2NN=Cc3cccc4cccc2c34)c1=O (centres undefined),16.3 µM (inactive),32.1 µM (inactive),,> 100 µM (inactive),27.5 µM (inactive),31.6 µM (inactive),21.9 µM (inactive),69 µM (inactive),40.3 µM (inactive),,44.2 µM (inactive),26.1 µM (inactive),50 µM (inactive),34.3 µM (inactive),26.9 µM (inactive),47.9 µM (inactive),48 µM (inactive),15.4 µM (inactive),,25.5 µM (inactive)
CC(C)n1c(=O)c2nn3c(=O)n(C(C)C)c(=O)c3nn2c1=O,,> 100 µM (inactive),,> 100 µM (inactive),> 100 µM (inactive),> 100 µM (inactive),,> 100 µM (inactive),> 100 µM (inactive),> 100 µM (inactive),,> 100 µM (inactive),> 100 µM (inactive),> 100 µM (inactive),> 100 µM (inactive),> 100 µM (inactive),> 100 µM (inactive),> 100 µM (inactive),> 100 µM (inactive),> 100 µM (inactive)
O=C1C=C2CC[C@H]3[C@@H]4CC[C@H](Oc5c6ccccc6nc6ccccc56)[C@H]4CC[C@@H]3[C@H]2CC1,,40 µM (inactive),,87.7 µM (inactive),36.7 µM (inactive),27.6 µM (inactive),28.3 µM (inactive),> 100 µM (inactive),22.9 µM (inactive),57.1 µM (inactive),41.9 µM (inactive),84.9 µM (inactive),60.8 µM (inactive),32.7 µM (inactive),27.8 µM (inactive),43.1 µM (inactive),61.9 µM (inactive),4.47 µM (inactive),31.9 µM (inactive),
COC(=O)C(N)CCCC(N)C(=O)NC(C)C(=O)NC(CCC(=O)NCCCNc1ccc([N+](=O)[O-])c2[nH]c3ccccc3c(=O)c12)C(N)=O (centres undefined),3.19 µM (inactive),16.8 µM (inactive),,6.56 µM (inactive),6.64 µM (inactive),5.68 µM (inactive),9.89 µM (inactive),10.4 µM (inactive),3.37 µM (inactive),7.26 µM (inactive),4.66 µM (inactive),3.25 µM (inactive),11.4 µM (inactive),5.01 µM (inactive),3.24 µM (inactive),11.6 µM (inactive),5.4 µM (inactive),7.78 µM (inactive),,15.1 µM (inactive)
COc1ccc(C2=C(OC(C)=O)c3cccn3-c3ccc(Cl)cc3S2)cc1,2.37 µM (inactive),,,9.66 µM (inactive),7.19 µM (inactive),4.52 µM (inactive),3.44 µM (inactive),,6.53 µM (inactive),3.97 µM (inactive),,7.55 µM (inactive),6.35 µM (inactive),2.22 µM (inactive),5.37 µM (inactive),5.37 µM (inactive),5.07 µM (inactive),6.67 µM (inactive),6.28 µM (inactive),
N#Cc1c(-c2ccc(F)cc2)c(-c2ccc(F)cc2)nn(CCO)c1=O,0.213 µM (active),< 0.01 µM (active),,0.743 µM (active),1.53 µM (inactive),0.948 µM (active),0.183 µM (active),1.82 µM (inactive),,0.493 µM (active),0.178 µM (active),0.875 µM (active),0.288 µM (active),0.0641 µM (active),,2.33 µM (inactive),,0.47 µM (active),0.155 µM (active),
Cc1[nH]n(-c2nc3c(c(=O)[nH]2)CCCC3)c(=O)c1CCO,,> 100 µM (inactive),> 100 µM (inactive),> 100 µM (inactive),60 µM (inactive),> 100 µM (inactive),,> 100 µM (inactive),> 100 µM (inactive),> 100 µM (inactive),> 100 µM (inactive),> 100 µM (inactive),> 100 µM (inactive),> 100 µM (inactive),> 100 µM (inactive),> 100 µM (inactive),> 100 µM (inactive),> 100 µM (inactive),> 100 µM (inactive),> 100 µM (inactive)
O=C(O)c1cc(N(Cc2ccccc2O)Cc2cc(O)ccc2O)ccc1O [LAVENDUSTIN A],> 100 µM (inactive),> 100 µM (inactive),,> 100 µM (inactive),,> 100 µM (inactive),> 10 µM (inactive),> 100 µM (inactive),> 100 µM (inactive),> 100 µM (inactive),> 100 µM (inactive),> 100 µM (inactive),> 100 µM (inactive),> 100 µM (inactive),34.9 µM (inactive),> 100 µM (inactive),> 100 µM (inactive),> 100 µM (inactive),> 100 µM (inactive),> 100 µM (inactive)
